Laboratory results: paper PMC6367500, “18β-glycyrrhetyl-3-O-sulfate would be a causative agent of licorice-induced pseudoaldosteronism” (Scientific Reports, 2019)

Test: Biliary excretion of GA metabolites in SD rats injected i.v. with GA
Type: in vivo
Details: GA 0.2 mg/kg i.v.
Experimental: Figure 3 Pharmacokinetic profiles of GL metabolites in SD rats (A,C,E,F) and EHBRs (B,D) after the administration of GA. GA (200 mg/kg) was administered orally to anesthetized SD rats or EHBRs, and plasma and urine were collected for 12 h (A–D). GA (0.2 mg/kg) was intravenously injected into anesthetized SD rats in which the biliary tract was cannulated. Then, bile samples were collected for 4 h (E). GA (0.2 mg/kg) was intravenously injected into conscious SD rats, and the feces was collected for 24 h. […] Since the determined lavels of 3MGA for B and D, 3 for C, GA for D, and all compounds except for 3 for E were relatively low; their magnified versions of their graphs are shown at the top or as an inside of each graph. The concentrations of GA metabolites were measured by LC-MS/MS, and data are plotted as mean ± S.E. (n = 4 for A–D,F; n = 3 for E).
GA, 3MGA, and compounds 1–3 were gradually excreted into the bile in SD rats injected i.v. with GA (0.2 mg/kg) and the accumulation of 3 in the bile at 4 h was 12-, 1.5 × 10^3-, 32-, and 15-fold those of GA, 3MGA, 1, and 2, respectively (Fig. 3E). […] GA, 3, and 2 were found in the feces of SD rats collected for 24 h after the i.v. injection of GA (0.2 mg/kg), while 3MGA and 1 were not found in the feces (Fig. 3F).
Female SD rats or EHBRs (9-week-old) were anesthetized by an intraperitoneal (i.p.) injection of urethane (1 g/kg) and their jugular veins were exposed. GA suspended in 0.5% CMC was then administered orally (200 mg/kg) to the unconscious rats, and blood samples were collected from the jugular vein; urine samples were collected using a metabolic cage at an appropriate time over a 12-h period. […] Feces were homogenized in phosphate-buffered saline (PBS; 0.15 M, pH 7.2), centrifuged (1.2 × 10^4 g, 10 min), and the supernatants were collected. After 1 week as a washout period, female SD rats were anesthetized by an i.p. injection of urethane (1 g/kg) and their biliary tract was cannulated. GA (0.2 mg/kg) was injected into the jugular vein, and the bile was collected every hour for 4 h. Aliquots (10 µl) of plasma, urine, homogenate of feces, or bile were mixed with 20 µl of subtilisin (0.91 U/ml) and incubated at 37 °C for 30 min, followed by the addition of 70 µl of astragaloside IV solution (1 µg/ml in ethanol containing 0.5% formic acid, used as internal standard), and kept at −20 °C for 30 min. […] The transitions (precursor to daughter) monitored and retention times were as follows: ESI(+) 743.4 to 567.5 m/z for compound 1 (5.5 min), ESI(−) 565.5 to 96.5 m/z for 2 (6.2 min), ESI(−) 549.5 to 96.5 m/z for 3 (8.1 min), ESI(+) 647.6 to 453.6 m/z for 3MGA (9.2 min), ESI(+) 471.3 to 91.0 m/z for GA (8.8 min), ESI(+) 823.5 to 453.6 m/z for GL (10.8 min), and ESI(+) 785.4 to 143.0 m/z for astragaloside IV (3.0 min). Linear regressions over the concentration range of 32 nM to 20 µM for each compound were examined using the peak-area ratio of the compounds to their internal standards and the least-squares method (r^2 > 0.98).

- accumulation in bile at 4 h relative to that of 1 (biliary tract cannulated): 32 fold
- accumulation in bile at 4 h relative to that of 2 (biliary tract cannulated): 15 fold
- accumulation in bile at 4 h relative to that of 3MGA (biliary tract cannulated): 1.5 × 10^3 fold
- accumulation in bile at 4 h relative to that of GA (biliary tract cannulated): 12 fold
SMILES: CC1(C)[C@@H](OS(=O)(=O)O)CC[C@]2(C)[C@H]3C(=O)C=C4[C@@H]5C[C@@](C)(C(=O)O)CC[C@]5(C)CC[C@@]4(C)[C@]3(C)CC[C@@H]12 [compound 3, 18β-glycyrrhetyl-3-O-sulfate]
- rank among GA metabolites eliminated into bile: major metabolite of GA eliminated into the bile
